# Values quoted from earlier work in patent publication US20200261389A1 (priority 2014, published 2020).
# Like-named read-outs stand apart in the source and are kept apart here.
# Experiments:
# cultured cells = conditions: added to cultured cells
# [1] = test system: zinc-dependent metalloproteinases; conditions: for reduction of GP shedding: higher concentrations (25-50 mM)
# retroviruses = conditions: millimolar concentrations, in vitro
# [2] = test system: Human Foreskin (HF) cells infected with HSV-2-strain G; conditions: 3 to 1.5 mM
compound,measurement,setting,value
"c1ccc(CN(CCN(Cc2ccccn2)Cc2ccccn2)Cc2ccccn2)nc1 [TPEN, N,N,N′,N′-tetrakis-2-pyridyl methyl-ethylene diamine]",apoptosis of cultured cells,cultured cells,induces apoptosis
COc1ccc(S(=O)(=O)N(CC(=O)NO)CC(C)C)cc1 [MMP-3 inhibitor II],reduction of GP shedding,[1],reduced GP shedding
"O=C(O)CN(CCOCCOCCN(CC(=O)O)CC(=O)O)CC(=O)O [EGTA, ethylene glycol tetraacetic acid]",effect on retroviruses,retroviruses,partial disintegration of viral membranes
"O=C(O)CN(CCN(CC(=O)O)CC(=O)O)CC(=O)O [EDTA, ethylenediaminetetraacetic acid]",effect on retroviruses,retroviruses,partial disintegration of viral membranes
CC(C)C[C@H](CC(=O)NO)C(=O)N[C@@H](Cc1ccc2ccccc2c1)C(=O)N[C@@H](C)C(=O)NCCN [TAPI-I],reduction of GP shedding,[1],reduced GP shedding
COc1ccc(S(=O)(=O)N2Cc3ccccc3C[C@@H]2C(=O)NO)cc1 [MMP-8 inhibitor I],inhibition of glycoprotein shedding,[1]; concentration of 5 mM,inhibitory effects were observed
O=C(O)c1ccccn1 [picolinic acid],apoptosis of infected cells,[2],cause apoptosis of HF infected cells
same,apoptosis / cell death of leukemia cells,leukemia cells,induces apoptosis
CNC(=O)[C@@H](NC(=O)[C@H](CC(C)C)[C@H](O)C(=O)NO)C(C)(C)C [BB2516],inhibition of glycoprotein shedding,[1]; concentration of 0.5 mM,inhibitory effects were observed
"c1cnc2c(c1)ccc1cccnc12 [1,10-phenanthroline]",apoptosis / cell death of leukemia cells,leukemia cells,DNA fragmentation and cell death occurred
COc1ccc(S(=O)(=O)N(Cc2cccnc2)[C@@H](C(=O)NO)C(C)C)cc1 [CGS-27023A],reduction of GP shedding,[1],reduced GP shedding
CNC(=O)[C@H](Cc1c[nH]c2ccccc12)NC(=O)[C@@H](CC(=O)NO)CC(C)C [GM6001],inhibition of glycoprotein shedding,[1]; concentration of 5 mM,inhibitory effects were observed
